In publication PMC10561090, “Modulation of HIV-1 capsid multimerization by sennoside A and sennoside B via interaction with the NTD/CTD interface in capsid hexamer” (Frontiers in Microbiology, 2023):
“And” between values parts separate entries of the source, which are not always exact repeats. Equal values may be shown once. Read-outs that look alike come from different tables or passages of the source. Where no end group is shown, it is not given here. The star is where a group is joined. Biotin = O=C1N[C@H]2[C@H](CS[C@H]2CCCCC(=O)*)N1

How the values were obtained:
[1] = target: T1, HIV-1 CA CTD/CAI interaction (Human immunodeficiency virus type 1 group M subtype B, UniProt P12493); test: biochemical; type: binding; conditions: for inhibition at 50 µM: read-out: IR (%), inhibitory rate; for IC50: 12-point two-fold dilution 50 to 0.024 μM, n = 3
T1 construct: DNA encoding the CA CTD was cloned into BamHI-NotI sites of prokaryotic expression vector pGEX-4 T-1; made in house; host or cells: E. coli BL21(DE3)
Experimental: The Discovery Probe FDA-approved Drug Library comprised 1,971 compounds, which were available as stock solutions at 10 mM concentrations in DMSO. Primary screening of these compounds was conducted using a previously established HTRF assay ([Zhang et al., 2019]). Briefly, compound (1 μL), CAI-biotin peptide (2 μL) and GST-CA CTD (2 μL) were dispensed into 384-well microplates. After 30 min incubation at room temperature, 5 μL premixed HTRF agents were added. After an additional 1 h incubation at room temperature, the HTRF signal was acquired by reading the plates in a PerkinElmer Envision Multilabel Plate Reader. Data were analyzed and visualized using GraphPad Prism (version 5.0). […] The quality of the assay was determined by calculating the Z’-factor using the following equation: Z’ = 1 - (3 × SDmax + 3 × SDmin) / |μmax - μmin|, where SDmax and SDmin represent the standard deviations of the positive and negative control measurements, respectively, and μmax and μmin represent the means of the respective positive and negative signal controls ([Zhang et al., 1999]).
We screened a library of 1,971 small molecules, all of which were FDA-approved. Each compound was tested in duplicate at a concentration of 50 μM. […] The remaining compounds were further validated through dose–response analysis using the HTRF assay.
Seven hit compounds were repurchased and subjected to a 12-point two-fold serial dilution, from 50 to 0.024 μM. […] This assay was conducted using three different concentrations of the compounds to determine their binding to monomeric CA.

HIV-1 CA monomer (Y169A) = HIV-1 CA monomer (Y169A) (Human immunodeficiency virus type 1 group M subtype B, UniProt P12493, Y301A); test: biochemical; type: binding
HIV-1 CA monomer (WT) = target: T2, HIV-1 CA monomer (WT) (Human immunodeficiency virus type 1 group M subtype B, UniProt P12493); test: biochemical; type: binding; conditions: 7.5–30 μM compound, 1:1 model, mean ± SD
T2 construct: capsid proteins (CA) released by proteolytic processing of Gag; made in house

integrase = target: integrase; design: method as in Esposito et al., 2016; conditions: ref Esposito et al., 2016; cited from earlier work
Cytotoxicity, MTT assay = type: cell-based; conditions: human, C8166 cells
Experimental: (§1) Anti-HIV-1 activity was determined by an assay based on virus-induced cytopathic effects (CPE) ([Zhang et al., 2020]). Briefly, C8166 cells were infected with HIV-1 at a multiplicity of infection (M.O.I) of 0.03, with DMSO or diluted SA or SB in 96-well plates. […] The cytotoxicity of the compounds was determined by a tetrazolium dye (MTT) based assay. C8166 cells were co-incubated with diluted SA or SB in 96-well plates. After 3 days, cell viability was determined using MTT, and the 50% cytotoxicity concentration (CC50) was calculated. […] Tenofovir disoproxil fumarate (TDF) was used as a positive control.
(§2) To further evaluate the antiviral effects of SA and SB, we tested them for protecting C8166 cells from HIV-1-induced CPE. The cytotoxic effect of these compounds on C8166 cells was also assessed.

HIV-1 CA monomer (L211S) = HIV-1 CA monomer (L211S) (Human immunodeficiency virus type 1 group M subtype B, UniProt P12493, L343S); test: biochemical; type: binding
HIV-1 CA = target: T3, HIV-1 CA (Human immunodeficiency virus type 1 group M subtype B, UniProt P12493); test: In vitro assembly of recombinant CA (absorbance at 350 nm); type: biochemical; conditions: 2.5 M NaCl, absorbance at 350 nm over time
T3 construct: capsid proteins (CA) released by proteolytic processing of Gag; made in house
Experimental: To monitor the in vitro assembly of HIV-1 CA in the presence and absence of hit compounds, changes in sample absorbance over time at 350 nm were measured, as previously described ([Lanman et al., 2002]; [Tang et al., 2003]; [Xu et al., 2018]). To initiate the assay, 1 μL of 5 mM SA or SB was added to 74 μL of buffer composed of a mixture of 5 M NaCl and 200 mM NaH2PO4 (pH 8.0) in a ratio of 2:1 by volume. Subsequently, 25 μL of CA (120 μM) was added to each well and DMSO served as a vehicle control. After a 2-min equilibration period, sample absorbance values were measured at 350 nm every 60 s for 39 min using a Perkin Elmer Envision microplate reader and were corrected by subtracting the absorbance values of a blank sample without sodium chloride. The resulting data were analyzed using GraphPad Prism 5.0.
Under high ionic strength conditions, recombinant CA can spontaneously oligomerize and form open-ended helical tubes consisting of repeating CA hexamers. To investigate the impact of SA and SB on CA tube assembly, we monitored in vitro CA assembly in the presence and absence of SA and SB by measuring changes in light absorbance over time in 2.5 M NaCl. CA (25 μM) for CA. […] We used BLI to determine the KD values of SA and SB in the HIV-1 CA hexamer.
Figure 4 Sennoside A and Sennoside B induced CA multimerization in vitro. (A–B) Light scattering (absorbance at 350 nm) responses showing the rate and extent of in vitro CA (20 μM) assembly in 2.5 M NaCl, in absence of compounds (mock) and the presence of Sennoside A and Sennoside B or CAI. Data are representative of three independent experiments. (C–D) Representative binding sensorgrams depicting the interaction of SA or SB with CA hexamer assessed by bio-layer interferometry (BLI) detection.

protease of zika virus = conditions: ref Coelho et al., 2022; cited from earlier work
[2] = target: HIV-1 reverse transcriptase-associated DNA Polymerase; design: method as in Esposito et al., 2016; conditions: ref Esposito et al., 2016; cited from earlier work
[3] = target: T4, CA hexamer/CPSF6 peptide interaction (Human immunodeficiency virus type 1 group M subtype B, UniProt P12493, A146C/E177C/M317A/W316A); type: binding, HIV-1
T4 construct: capsid proteins (CA) released by proteolytic processing of Gag; made in house
Experimental: As mentioned previously, this pocket is the binding site for two host cell proteins, CPSF6 and NUP153 ([Price et al., 2014]). […] We then performed a BLI-based competition assay. CA hexamer at a concentration of 5 μM, either alone or in combination with high concentrations of SA or SB or PF-74, were used to bind to the SA biosensor loaded with biotinylated CPSF6_313–327 or NUP153_1407–1423.
Biotinylated hexameric CA was firstly loaded to streptavidin-coated biosensors. Then the biosensors were dipped into the plate wells containing CPSF6_308-327 or NUP153_1407–1423 in the absence or presence of PF74 or SA or SB. BLI signals were captured by Octet96 system and data were normalized according to the signal in the absence of compound. Comparisons between data were carried out using the paired t-test by GraphPad Prism 5.0. The double asterisk (^**) and three asterisks (^***) represent p < 0.01 and < 0.001 from the paired t test, respectively.

HIV-1 CA hexamer = HIV-1 CA hexamer (Human immunodeficiency virus type 1 group M subtype B, UniProt P12493, A146C/E177C/M317A/W316A); test: BLI binding to CA hexamer
HIV-1 CA monomer (N183A) = HIV-1 CA monomer (N183A) (Human immunodeficiency virus type 1 group M subtype B, UniProt P12493, N315A); test: biochemical; type: binding
HIV-1 [4] = test: Anti-HIV-1 activity, virus-induced cytopathic effect in C8166 cells; type: cell-based; conditions: for IC50: Human immunodeficiency virus 1, M.O.I 0.03, 72 h, read-out: IC50 against HIV-1 induced CPE
Experimental: as §1, §2

HIV-1 CA monomer (L211A) [5] = test: biochemical; type: binding; conditions: CA L211A compared to WT CA
HIV-1 CA monomer (L211A) [6] = target: HIV-1 CA monomer (L211A) (Human immunodeficiency virus type 1 group M subtype B, UniProt P12493, L343A); test: biochemical; type: binding
HIV-1 CA monomer (E187A) = HIV-1 CA monomer (E187A) (Human immunodeficiency virus type 1 group M subtype B, UniProt P12493, E319A); test: biochemical; type: binding
RNase H = target: RNase H; design: method as in Esposito et al., 2016; conditions: ref Esposito et al., 2016; cited from earlier work
HIV-1 [7] = system: HIV-1; design: method as in Esposito et al., 2016; conditions: cell-based assays, ref Esposito et al., 2016; read-out: EC50, anti-HIV-1 activity; cited from earlier work
SARS-CoV-2 main protease = conditions: cited from earlier work
[8] = primary screening, compound at 50 μM, duplicate
[9] = 5 μM CA hexamer, PF74 2.5 μM, SA 225 μM, SB 175 μM

In the case of O=C(O)CCCC[C@@H]1SC[C@@H]2NC(=O)N[C@@H]21 [Biotin], the inhibition at 50 µM [1] is reported as 98.8%.
Compound CC[C@H](C)C[C@H](C)CCCCCCCCC(=O)N[C@H]1C[C@@H](O)[C@@H](NCCN)NC(=O)[C@@H]2[C@@H](O)CCN2C(=O)[C@H]([C@H](O)CCN)NC(=O)[C@H]([C@H](O)[C@@H](O)c2ccc(O)cc2)NC(=O)[C@@H]2C[C@@H](O)CN2C(=O)[C@H]([C@@H](C)O)NC1=O [Caspofungin] has an IC50 [1] of 29.5 µM and an inhibition at 50 µM [1, 8] of 94.2%.
CCCCCCCCCCCC1=C(O)C(=O)C=C(O)C1=O [Embelin] gave an inhibition at 50 µM [1, 8] of 94.3%.
In the case of O=C(O)c1cc(O)c2c(c1)[C@H]([C@H]1c3cc(C(=O)O)cc(O)c3C(=O)c3c(O[C@@H]4O[C@H](CO)[C@@H](O)[C@H](O)[C@H]4O)cccc31)c1cccc(O[C@@H]3O[C@H](CO)[C@@H](O)[C@H](O)[C@H]3O)c1C2=O [Sennoside A, sennoside A], the Kd (HIV-1 CA monomer (Y169A)) is listed as 8.8 ± 0.29 µM, the Kd (HIV-1 CA monomer (WT)) is listed as 2.34 µM and the IC50 (integrase) is listed as 3.8 µM. For the same compound, the IC50 [1] was 0.18 µM, the inhibition at 50 µM [1, 8] was 94.7% and the CC50 at 3 days (Cytotoxicity, MTT assay) was 22.6 µM. The Kd (HIV-1 CA monomer (L211S)) was 7 ± 0.18 µM, the “effect on in vitro CA assembly” value (HIV-1 CA) was “increased in vitro CA assembly in a dose-dependent manner” and the IC50 (protease of zika virus) was 0.66 µM. For the same compound, the IC50 [2] was 5.3 µM, the “effect on CA hexamer/CPSF6 peptide interaction” value [3, 9] was “inhibited” and the Kd (HIV-1 CA hexamer) was 1.75 µM and 2.25 µM. For the same compound, the Kd (HIV-1 CA monomer (N183A)) was 1.95 ± 0.06 µM, the “selectivity index (SI = CC50/EC50)” value (HIV-1 [4]) was “less than 10” and the IC50 (HIV-1 [4]) was 2.27 µM. It also gave a KD fold change (HIV-1 CA monomer (L211A) [5]) of 1.35, a Kd (HIV-1 CA monomer (L211A) [6]) of 3.17 ± 0.09 µM and a Kd (HIV-1 CA monomer (E187A)) of 7.69 ± 0.25 µM. The IC50 (RNase H) was 1.9 µM and the EC50 (HIV-1 [7]) was about 9 µM.
Compound O=C(O)c1cc(O)c2c(c1)[C@@H]([C@H]1c3cc(C(=O)O)cc(O)c3C(=O)c3c(O[C@@H]4O[C@H](CO)[C@@H](O)[C@H](O)[C@H]4O)cccc31)c1cccc(O[C@@H]3O[C@H](CO)[C@@H](O)[C@H](O)[C@H]3O)c1C2=O [Sennoside B, sennoside B] has a Kd (HIV-1 CA monomer (Y169A)) of 2.8 ± 0.07 µM, a Kd (HIV-1 CA monomer (WT)) of 1.62 µM and an IC50 [1] of 0.08 µM. It also gave an inhibition at 50 µM [1, 8] of 95.1%, a CC50 at 3 days (Cytotoxicity, MTT assay) of 33.4 µM and a Kd (HIV-1 CA monomer (L211S)) of 4.84 ± 0.12 µM. The “effect on in vitro CA assembly” value (HIV-1 CA) was “increased in vitro CA assembly in a dose-dependent manner”, the “effect on CA hexamer/CPSF6 peptide interaction” value [3, 9] was “inhibited” and the Kd (HIV-1 CA hexamer) was 2.25 µM and 1.75 µM. For the same compound, the Kd (HIV-1 CA monomer (N183A)) was 3.96 ± 0.11 µM, the “selectivity index (SI = CC50/EC50)” value (HIV-1 [4]) was “less than 10” and the IC50 (HIV-1 [4]) was 4.73 µM. The Kd (HIV-1 CA monomer (L211A) [6]) was 2.52 ± 0.07 µM, the Kd (HIV-1 CA monomer (E187A)) was 6.77 ± 0.2 µM and the IC50 (SARS-CoV-2 main protease) was 0.104 µM.
For “CAI: dodecapeptide capsid assembly inhibitor identified by phage display, positive control (ITFEDLLDYYPGGGSK(Biotin))”, the “effect on in vitro CA assembly” value (HIV-1 CA) was “inhibited CA assembly in vitro”.
For PF-74, the “effect on CA hexamer/CPSF6 peptide interaction” value [3] was “inhibited, to a degree”.
